Tests used:
Format in all cases: in vivo
Parameters in all cases: key: 5: completely killed; 4: seriously injured; 3: considerably injured; 2: somewhat injured; 1: slightly injured; 0: not injured (normally grown)
[1] = test system: tamagayatsuri (small-flowered umbrellaplant, Cyperus difformis); assay: Experiment 4 flooded soil treatment: tamagayatsuri; settings: 4 weeks after treatment
Description: (§1) Paddy soil (clay loam) was put into a pot so as to have a surface area of 1/15500 ares. Uniformly mixed seeds of several kinds of weeds, viz., nobie (barnyardgrass, Echinochloa spp.), broad-leaved weeds, hotarui (bulrush, Scirpus juncoides) and tamagayatsuri (small-flowered umbrellaplant, Cyperus difformis), were sown in the surface layer of the soil in each pot, and then paddy rice seedlings at the two- or three-leaved stage were transplanted into each pot to a depth of 2 cm, and water was fed into each pot so as to provide a 3 cm deep water layer on the soil surface. After 3 days, in other words at the initial stage of germination of nobie (barnyardgrass, Echinochloa spp.), a predetermined amount of a selected compound obtained in a manner analogous to Example 11 in the form of diluted aqueous solution was dropped into the water layer in each pot. After that, the pots were kept in a glass chamber to allow the paddy rice and the weeds to grow, and after the lapse of 4 weeks from the treatment with the selected compounds, the herbicidal effects and the degree of injury to the paddy rice were evaluated. The evaluation of the herbicidal effects was similarly conducted as to that of Experiment 1.

[2] = test system: cockspur (Panicum crus-galli); assay: Experiment 5 foliage treatment: cockspur; settings: foliage spray of wettable powder suspension, evaluated 4 weeks after treatment
Method in brief: (§2)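 Compounds sprayed as wettable powder suspension onto pot-grown plants at the two- to three-leaf stage. Plants kept in a glasshouse and herbicidal effect scored 4 weeks after treatment.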

[3] = test system: noasagao (blue morningglory, Ipomoea indica); assay: Experiment 6 foliage treatment: noasagao; settings: foliage spray of wettable powder suspension, evaluated 4 weeks after treatment
Method: (§3) Upon seedling stage (two- or three-leaved stage) of ichibi (velvetleaf, Abutilon theophrasti), onamomi (heartleaf cocklebur, Xanthium strumarium) (4 L stage), noasagao (blue morningglory, Ipomoea indica) and ooinutade (pale smartweed, Persicaria lapathifolia) which were grown on a cultivated soil put in pots of 1/8850 ares, a selected compound obtained in a manner analogous to Example 11, in suspended wettable powder, was sprayed to each plant. After that, the pots were kept in a glass chamber to allow each plant to grow, and after the lapse of 4 weeks from the treatment with the selected compounds the herbicidal effects were evaluated. The evaluation of the herbicidal effects was similarly conducted as that of Experiment 1.

paddy rice = assay: Experiment 4 flooded soil treatment: injury to paddy rice; settings: 4 weeks after treatment
Description: as §1

[4] = test system: mehishiba (henry crabgrass, Digitaria cliaris); assay: Experiment 5 foliage treatment: mehishiba; settings: foliage spray of wettable powder suspension, evaluated 4 weeks after treatment
Method in brief: as §2

[5] = test system: nobie (barnyardgrass, Echinochloa spp.); assay: Experiment 4 flooded soil treatment: nobie; settings: 4 weeks after treatment
Description: as §1

rice = assay: Experiment 5 foliage treatment: rice; settings: foliage spray of wettable powder suspension, evaluated 4 weeks after treatment
Method in brief: as §2

[6] = test system: onamomi (heartleaf cocklebur, Xanthium strumarium); assay: Experiment 6 foliage treatment: onamomi; settings: foliage spray of wettable powder suspension, evaluated 4 weeks after treatment
Method: as §3

[7] = test system: ooinutade (pale smartweed, Persicaria lapathifolia); assay: Experiment 6 foliage treatment: ooinutade; settings: foliage spray of wettable powder suspension, evaluated 4 weeks after treatment
Method: as §3

broad-leaved weeds = assay: Experiment 4 flooded soil treatment: broad-leaved weeds; settings: 4 weeks after treatment
Description: as §1

garden radish = assay: Experiment 5 foliage treatment: garden radish; settings: foliage spray of wettable powder suspension, evaluated 4 weeks after treatment
Method in brief: as §2

[8] = test system: ichibi (velvetleaf, Abutilon theophrasti); assay: Experiment 6 foliage treatment: ichibi; settings: foliage spray of wettable powder suspension, evaluated 4 weeks after treatment
Method: as §3

[9] = test system: hotarui (bulrush, Scirpus juncoides); assay: Experiment 4 flooded soil treatment: hotarui; settings: 4 weeks after treatment
Description: as §1

[10] = test system: aobiyu (slender amaranth, Amaranthus viridis); assay: Experiment 5 foliage treatment: aobiyu; settings: foliage spray of wettable powder suspension, evaluated 4 weeks after treatment
Method in brief: as §2

C#CC(C)Oc1cc(N(C(=O)C2=C(C(=O)OCCOCC)CCCC2)C(=O)c2cccnc2)c(F)cc1Cl (stereo not shown) [compound 60]
4.5: Herbicidal Effect hotarui ([9]; 3.13 g/10a) | Herbicidal Effect hotarui ([9]; 6.25 g/10a)
1: Herbicidal Effect cockspur ([2]; 40 g/10a) | Herbicidal Effect cockspur ([2]; 80 g/10a)
5: Herbicidal Effect tamagayatsuri ([1]; 3.13 g/10a) | Herbicidal Effect tamagayatsuri ([1]; 6.25 g/10a) | Herbicidal Effect noasagao ([3]; 4 g/10a) | Herbicidal Effect noasagao ([3]; 8 g/10a) | Herbicidal Effect mehishiba ([4]; 80 g/10a) | Herbicidal Effect nobie ([5]; 3.13 g/10a) | Herbicidal Effect nobie ([5]; 6.25 g/10a) | Herbicidal Effect onamomi ([6]; 4 g/10a) | Herbicidal Effect onamomi ([6]; 8 g/10a) | Herbicidal Effect ooinutade ([7]; 4 g/10a) | Herbicidal Effect ooinutade ([7]; 8 g/10a) | Herbicidal Effect broad-leaved weed (broad-leaved weeds; 3.13 g/10a) | Herbicidal Effect broad-leaved weed (broad-leaved weeds; 6.25 g/10a) | Herbicidal Effect garden radish (garden radish; 40 g/10a) | Herbicidal Effect garden radish (garden radish; 80 g/10a) | Herbicidal Effect ichibi ([8]; 4 g/10a) | Herbicidal Effect ichibi ([8]; 8 g/10a) | Herbicidal Effect aobiyu ([10]; 40 g/10a) | Herbicidal Effect aobiyu ([10]; 80 g/10a)
0.5: Injury of Paddy (paddy rice; 3.13 g/10a) | Injury of Paddy (paddy rice; 6.25 g/10a)
4: Herbicidal Effect mehishiba ([4]; 40 g/10a) | Herbicidal Effect rice (rice; 80 g/10a)
2: Herbicidal Effect rice (rice; 40 g/10a)

N-[4-chloro-2-fluoro-5-(1-methylpropargyloxy)phenyl]-N-nicotinyl-3,4,5,6-tetrahydrophthalamic acid methyl ester [compound 57]
4.5: Herbicidal Effect hotarui ([9]; 3.13 g/10a) | Herbicidal Effect hotarui ([9]; 6.25 g/10a)
0.5: Injury of Paddy (paddy rice; 6.25 g/10a)
1: Herbicidal Effect cockspur ([2]; 40 g/10a) | Herbicidal Effect rice (rice; 40 g/10a) | Herbicidal Effect rice (rice; 80 g/10a)
4: Herbicidal Effect noasagao ([3]; 4 g/10a) | Herbicidal Effect noasagao ([3]; 8 g/10a) | Herbicidal Effect mehishiba ([4]; 40 g/10a) | Herbicidal Effect mehishiba ([4]; 80 g/10a) | Herbicidal Effect onamomi ([6]; 4 g/10a) | Herbicidal Effect onamomi ([6]; 8 g/10a)
3: Herbicidal Effect cockspur ([2]; 80 g/10a)
0: Injury of Paddy (paddy rice; 3.13 g/10a)
5: Herbicidal Effect tamagayatsuri ([1]; 3.13 g/10a) | Herbicidal Effect tamagayatsuri ([1]; 6.25 g/10a) | Herbicidal Effect nobie ([5]; 3.13 g/10a) | Herbicidal Effect nobie ([5]; 6.25 g/10a) | Herbicidal Effect ooinutade ([7]; 4 g/10a) | Herbicidal Effect ooinutade ([7]; 8 g/10a) | Herbicidal Effect broad-leaved weed (broad-leaved weeds; 3.13 g/10a) | Herbicidal Effect broad-leaved weed (broad-leaved weeds; 6.25 g/10a) | Herbicidal Effect garden radish (garden radish; 40 g/10a) | Herbicidal Effect garden radish (garden radish; 80 g/10a) | Herbicidal Effect ichibi ([8]; 4 g/10a) | Herbicidal Effect ichibi ([8]; 8 g/10a) | Herbicidal Effect aobiyu ([10]; 40 g/10a) | Herbicidal Effect aobiyu ([10]; 80 g/10a)

C#CC(C)Oc1cc(N(C(=O)C2=C(C(=O)OC)CCCC2)C(=O)c2cncc(C(=O)OC)c2)c(F)cc1Cl (stereo not shown) [compound 67]
5: Herbicidal Effect tamagayatsuri ([1]; 3.13 g/10a) | Herbicidal Effect tamagayatsuri ([1]; 6.25 g/10a) | Herbicidal Effect noasagao ([3]; 4 g/10a) | Herbicidal Effect noasagao ([3]; 8 g/10a) | Herbicidal Effect nobie ([5]; 3.13 g/10a) | Herbicidal Effect nobie ([5]; 6.25 g/10a) | Herbicidal Effect onamomi ([6]; 8 g/10a) | Herbicidal Effect ooinutade ([7]; 4 g/10a) | Herbicidal Effect ooinutade ([7]; 8 g/10a) | Herbicidal Effect broad-leaved weed (broad-leaved weeds; 3.13 g/10a) | Herbicidal Effect broad-leaved weed (broad-leaved weeds; 6.25 g/10a) | Herbicidal Effect garden radish (garden radish; 40 g/10a) | Herbicidal Effect garden radish (garden radish; 80 g/10a) | Herbicidal Effect ichibi ([8]; 4 g/10a) | Herbicidal Effect ichibi ([8]; 8 g/10a) | Herbicidal Effect hotarui ([9]; 6.25 g/10a) | Herbicidal Effect aobiyu ([10]; 40 g/10a) | Herbicidal Effect aobiyu ([10]; 80 g/10a)
1: Herbicidal Effect cockspur ([2]; 40 g/10a) | Herbicidal Effect cockspur ([2]; 80 g/10a) | Herbicidal Effect mehishiba ([4]; 40 g/10a) | Herbicidal Effect mehishiba ([4]; 80 g/10a) | Herbicidal Effect rice (rice; 40 g/10a) | Herbicidal Effect rice (rice; 80 g/10a)
0.5: Injury of Paddy (paddy rice; 3.13 g/10a) | Injury of Paddy (paddy rice; 6.25 g/10a)
4: Herbicidal Effect onamomi ([6]; 4 g/10a) | Herbicidal Effect hotarui ([9]; 3.13 g/10a)

COC(=O)C1=C(C(=O)N(C(=O)c2cccnc2)c2cc(C(=O)OC)c(Cl)cc2F)CCCC1 [compound 64]
1: Herbicidal Effect cockspur ([2]; 40 g/10a) | Herbicidal Effect cockspur ([2]; 80 g/10a) | Herbicidal Effect mehishiba ([4]; 40 g/10a) | Herbicidal Effect rice (rice; 40 g/10a) | Herbicidal Effect rice (rice; 80 g/10a)
0.5: Injury of Paddy (paddy rice; 6.25 g/10a)
5: Herbicidal Effect noasagao ([3]; 8 g/10a) | Herbicidal Effect nobie ([5]; 3.13 g/10a) | Herbicidal Effect nobie ([5]; 6.25 g/10a) | Herbicidal Effect onamomi ([6]; 8 g/10a) | Herbicidal Effect ooinutade ([7]; 4 g/10a) | Herbicidal Effect ooinutade ([7]; 8 g/10a) | Herbicidal Effect broad-leaved weed (broad-leaved weeds; 3.13 g/10a) | Herbicidal Effect broad-leaved weed (broad-leaved weeds; 6.25 g/10a) | Herbicidal Effect garden radish (garden radish; 40 g/10a) | Herbicidal Effect garden radish (garden radish; 80 g/10a) | Herbicidal Effect ichibi ([8]; 4 g/10a) | Herbicidal Effect ichibi ([8]; 8 g/10a) | Herbicidal Effect aobiyu ([10]; 40 g/10a) | Herbicidal Effect aobiyu ([10]; 80 g/10a)
0: Injury of Paddy (paddy rice; 3.13 g/10a)
2: Herbicidal Effect mehishiba ([4]; 80 g/10a)
4: Herbicidal Effect tamagayatsuri ([1]; 3.13 g/10a) | Herbicidal Effect tamagayatsuri ([1]; 6.25 g/10a) | Herbicidal Effect noasagao ([3]; 4 g/10a) | Herbicidal Effect onamomi ([6]; 4 g/10a) | Herbicidal Effect hotarui ([9]; 3.13 g/10a) | Herbicidal Effect hotarui ([9]; 6.25 g/10a)
